{
  "source": "patent US8691874B2",
  "about": "“Treatment of ophthalmic disorders using urea” (Kato Pharmaceuticals, Inc., priority 2000, dated 2014)",
  "key": {"[1]": {"test_system": "human patients with single or multiple retinal tears", "test": "Intravitreal urea 3 days before pneumatic Retinopexy in patients with retinal tears (Example I)", "format": "in vivo", "method": "All patients received pneumatic Retinopexy treatment 3 days after intravitreal injection of 1.5 mg of urea in 50 μl of aqueous solution prepared according to the formulation set forth in Table 11 above. […] Within 3-7 days after urea injection, 11/12 patients had developed PVD, only 1/12 patients had not developed PVD. Within 90 days of the urea injection that one patient also developed PVD.\nWithin 3 days of treatment 9/12 patients had complete retinal reattachment and macular attachment, and within 7 days all 12 patients had complete retinal reattachment and macular attachment.\n(Tornambe, P. E. et. al. Opthalmology, 1989; 96: 772-783)."}, "[2]": {"test_system": "stage 3 idiopathic macular hole patient", "test": "Intravitreal urea followed by C3F8 gas in a patient with idiopathic macular hole (Example II)", "format": "in vivo, human", "conditions": "for visual acuity: baseline 20/400; for size of the macular hole: baseline 450 μm", "method": "The macular defect was classified as a stage 3 macular hole, and the patient's visual acuity was recorded at 20/400 at a baseline time point prior to urea treatment. […] Seven days after the intravitreal urea injection the patient was administered an intravitreal injection of 0.3 ml of expandable gas (C3F8).\nOne week after administration of the gas, the size of the macular hole had decreased from 450 μm to a smaller size of 200 μm and the patient's vision had improved from a baseline visual acuity of 20/400 to 20/80. Two weeks post treatment the size of the macular hole had decreased from 450 μm to a smaller size of 90 μm and the patient's vision had improved from a baseline visual Acuity of 20/400 to 20/70. Four weeks post treatment the size of the macular hole had decreased from 450 μm to a smaller size of 60 μm and the patient's vision had improved from a baseline visual acuity of 20/400 to 20/60."}, "[3]": {"test_system": "human patients with diabetes-related nonclearing vitreous hemorrhage", "test": "Treatment of vitreous hemorrhage (Example IV)", "format": "in vivo", "method": "The formulations and treatments disclosed herein are also effective to treat vitreous hemorrhage. In this example, seven human patients were treated for diabetes-related nonclearing vitreous hemorrhage. Each patient received a single intravitreal injection of 100 μl of a formulation containing urea. The formulation used in this example contained 6% urea, 0.9% sodium chloride, and sterile water for injection (qs 100%)."}, "[4]": {"test_system": "human patients requiring pars plana vitrectomy", "test": "Intravitreal urea as adjunct to vitrectomy (Example V)", "format": "in vivo", "method": "In this example, five human patients requiring pars plana vitrectomy for various indications were treated one week prior to vitrectomy with a single intravitreal injection of 100 μl of a urea in aqueous solution. The formulation contained 6% urea, 0.9% sodium chloride, and sterile water for injection (qs 100%). All patients underwent routine vitrectomies 8 to 10 days after the urea injection. The minimum waiting time between the urea injection and the vitrectomy procedure is about 1 day to 3 days.\nNo vitrectomy cutter was used."}, "[5]": {"test_system": "patients with nonproliferative diabetic retinopathy", "test": "Treatment of nonproliferative diabetic retinopathy (Example VI)", "format": "in vivo, human", "method": "Sixty-nine patients with nonproliferative diabetic retinopathy were each administered a single intravitreal injection of 50 μl of a urea formulation containing 3% urea, 0.9% sodium chloride, and sterile water for injection.\nThe vitreous liquefaction and vitreous collapse in nonproliferative diabetic retinopathy patients would inhibit the growth and proliferation of the blood vessels, and thus inhibit the progression of diabetic retinopathy. All 69 (of the) patients were followed for six months following the procedure."}, "[6]": {"test_system": "human patients with retinitis pigmentosa", "test": "Double masked placebo controlled dose escalation study in retinitis pigmentosa (Example VII)", "format": "in vivo", "method": "A double masked placebo controlled, randomized, dose escalation study was done in 32 human patients with retinitis pigmentosa. All patients were treated with a single intravitreal injection of 50 μl of a urea-containing formulation. Three groups of patients received different concentrations of urea. One group received a formulation containing 1.5% urea, 0.9% sodium chloride, and sterile water for injection. A second group received an identical formulation except the formulation contained 3.0% urea. A third group received an identical formulation except the formulation contained 6.0% urea. A placebo group received 50 μl of 0.9% sodium chloride.\nForty-seven percent of the patient reported an increase of at least 3 lines of best corrected visual acuity measured by ETDRS charts, whereas, only 14% of the placebo patients reported an increase of at least 3 lines of best corrected visual acuity measured by ETDRS charts.\nThere was no dramatic increase in the visual field of the placebo control patients."}, "[7]": {"test_system": "human patients with optic nerve damage caused by trauma and/or glaucoma", "test": "Double masked placebo controlled dose escalation study in optic nerve damage (Example VIII)", "format": "in vivo", "method": "In accordance with the present invention, urea, thiourea, guanidine and possibly the other compounds of General Formula I above are effective to treat neuropathies (e.g., disorders or damage to nerves). In this example, 33 non sighted patients with optic nerve damage caused by trauma and/or glaucoma, with visual acuity of light perception or no light perception were administered a urea-containing formulation, as disclosed herein. The study was a double masked placebo controlled, randomized, dose escalation study conducted with 33 human patients with optic nerve damage. Patients were randomized into 5 groups, Group 1 of 5 patients, Group 2 of 4 patients, Group 3 of 8 patients, Group 4 of 8 patients and Group 5 of 8 patients. Each patient received a single intravitreal injection of 50 μl of an aqueous treatment solution, as follows:\nIn Six patients the vision improved from No light perception to light perception, in 2 patients the vision improved from light perception to count fingers at 12 inches, in 2 patients the vision improved from no light perception to 20/400 and 20/800 vision and in 2 patients the vision improved from light perception to 20/600 and 20/800 vision. No patients in the placebo group reported any improvement in best corrected visual acuity as measured by ETDRS charts."}, "[8]": {"test_system": "patients with optic nerve damage related to optic nerve tumors", "test": "Treatment of optic nerve damage related to optic nerve tumors (Example VIII)", "format": "in vivo, human", "method": "In another study, three patients with long standing (6 months or longer) optic nerve damage related to optic nerve tumors were treated with a single intravitreal injection of 100 μl of a 6% urea containing formulation. All three patient treated reported a significant improvement in visual acuity after treatment. The patients' visual acuity improved from an average of Count Fingers at 12 inches to 20/200."}, "[9]": {"test_system": "vitreous body of patients", "test": "Injection of urea into the vitreous, slit lamp biomicroscopy in patients", "format": "in vivo, human", "text": "(§1) In addition, disinsertion of the posterior vitreous has been observed in patients by the use of slit lamp biomicroscopy and in rabbits by specialized histological techniques after urea treatment."}, "[10]": {"test_system": "posterior vitreous of rabbits", "test": "Injection of urea into the vitreous, specialized histological techniques in rabbits", "format": "in vivo", "conditions": "after urea treatment", "text": "as §1"}, "[11]": {"conditions": "10% water solution; cited from earlier work"}, "[12]": {"conditions": "cited from earlier work"}, "[13]": {"conditions": "cited from earlier work", "remark": "listed apart in the source"}, "[14]": {"conditions": "one week after administration of the gas"}},
  "note": "Several values for one entry are separate records, joined by “and”; a condition that tells them apart may be missing. Equal entries are not always repeated. Where two headings read alike, the source gives them in different places.",
  "data": [
    {"smiles": "NC(N)=O", "note": "[urea]", "values": [
      {"measurement": "adverse effects of the intravitreal injection, ophthalmoscopic and biomicroscopic examination", "setting": "[1]; 1.5 mg urea in 50 μl intravitreal, 12 patients", "result": "no adverse effects"},
      {"measurement": "average improvement of visual acuity per patient", "setting": "[1]; 6 months after Retinopexy", "result": "4.2 lines and 21 letters"},
      {"measurement": "patients with improvement of more than 2 lines of visual acuity (11 letters)", "setting": "[1]; 6 months post Retinopexy", "result": 64, "unit": "%"},
      {"measurement": "occurrence of new retinal tears with associated retinal detachment", "setting": "[1]; 90 days follow up", "result": "none of the patients"},
      {"measurement": "time by which the one remaining patient developed PVD", "setting": "[1]; after urea injection, 1.5 mg in 50 μl", "result": "≤ 90", "unit": "days"},
      {"measurement": "patients with improvement of more than 2 lines of visual acuity (11 letters)", "setting": "[1]; urea 3 days prior to pneumatic Retinopexy, time point not given", "result": 64, "unit": "%"},
      {"measurement": "patients who had developed PVD", "setting": "[1]; within 3-7 days after urea injection, 1.5 mg in 50 μl", "result": "11/12"},
      {"measurement": "patients with complete retinal reattachment and macular attachment", "setting": "[1]; within 3 days of treatment", "result": "9/12"},
      {"measurement": "patients with complete retinal reattachment and macular attachment", "setting": "[1]; within 7 days", "result": 12, "unit": "patients"},
      {"measurement": "adverse effects of the intravitreal injection, ophthalmoscopic and biomicroscopic examination", "setting": "[2]; 1.5 mg urea in 50 μl", "result": "no adverse effects"},
      {"measurement": "visual acuity", "setting": "[2]; four weeks post treatment", "result": "20/60"},
      {"measurement": "size of the macular hole", "setting": "[2]; four weeks post treatment", "result": 60, "unit": "μm"},
      {"measurement": "visual acuity", "setting": "[2]; [14]", "result": "20/80"},
      {"measurement": "size of the macular hole", "setting": "[2]; [14]", "result": 200, "unit": "μm"},
      {"measurement": "time to complete Posterior Vitreous Detachment (PVD)", "setting": "[2]; single intravitreal 1.5 mg urea in 50 μl, Table III formulation", "result": "≤ 7", "unit": "days"},
      {"measurement": "visual acuity", "setting": "[2]; two weeks post treatment", "result": "20/70"},
      {"measurement": "size of the macular hole", "setting": "[2]; two weeks post treatment", "result": 90, "unit": "μm"},
      {"measurement": "rate of hemorrhagic blood clearance compared with normal clearance rates in clinical practice", "setting": "[3]; 100 μl of 6% urea", "result": "significantly accelerated"},
      {"measurement": "patients with clearance of vitreous hemorrhage sufficient to treat the retina with photocoagulation", "setting": "[3]; single intravitreal 100 μl of 6% urea, 0.9% sodium chloride, seven patients", "result": "All seven"},
      {"measurement": "decrease in surgical time relative to patients who did not receive urea", "setting": "[4]; 100 μl of 6% urea one week prior to vitrectomy", "result": 70, "unit": "%"},
      {"measurement": "vitreous liquefaction and collapse", "setting": "[4]; by one week after single intravitreal 100 μl of 6% urea, five patients", "result": "complete vitreous liquefaction and collapse"},
      {"measurement": "time to complete vitreous liquefaction and collapse after administration", "setting": "[5]; 50 μl of 3% urea", "result": "2-4 weeks"},
      {"measurement": "patients with complete vitreous liquefaction and collapse", "setting": "[5]; single intravitreal 50 μl of 3% urea, 0.9% sodium chloride", "result": 69, "unit": "patients"},
      {"measurement": "patients with increase of at least 3 lines of best corrected visual acuity measured by ETDRS charts", "setting": "[6]; single intravitreal 50 μl of 1.5%, 3.0% or 6.0% urea, groups pooled", "result": "Forty-seven"},
      {"measurement": "average improvement in the patient's visual field", "setting": "[6]; urea-treated patients", "result": 10, "unit": "degrees"},
      {"measurement": "patients whose vision improved from No light perception to light perception", "setting": "[7]; 50 μl of 0.2-6.0% urea", "result": "Six"},
      {"measurement": "patients whose vision improved from light perception to 20/600 and 20/800 vision", "setting": "[7]; 50 μl of 0.2-6.0% urea", "result": 2, "unit": "patients"},
      {"measurement": "patients whose vision improved from light perception to count fingers at 12 inches", "setting": "[7]; 50 μl of 0.2-6.0% urea", "result": 2, "unit": "patients"},
      {"measurement": "patients whose vision improved from no light perception to 20/400 and 20/800 vision", "setting": "[7]; 50 μl of 0.2-6.0% urea", "result": 2, "unit": "patients"},
      {"measurement": "patients with increase of best corrected visual acuity measured by ETDRS charts", "setting": "[7]; single intravitreal 50 μl of 0.2%, 1.5%, 3.0% or 6.0% urea", "result": "Forty-three"},
      {"measurement": "average visual acuity after treatment", "setting": "[8]; from an average of Count Fingers at 12 inches, 100 μl of 6% urea", "result": "20/200"},
      {"measurement": "patients reporting a significant improvement in visual acuity after treatment", "setting": "[8]; single intravitreal 100 μl of 6% urea, three patients", "result": "All three"},
      {"measurement": "liquefaction of the vitreous body and breakdown of hyaluronic acid of the vitreous", "setting": "[9]; after injection of urea into the vitreous", "result": "within several days"},
      {"measurement": "disinsertion of the posterior vitreous", "setting": "[9]; patients, slit lamp biomicroscopy, after urea treatment", "result": "observed"},
      {"measurement": "disinsertion of the posterior vitreous", "setting": "[10]", "result": "observed"},
      {"measurement": "pH", "setting": "[11]", "result": 7.2},
      {"measurement": "solubility", "setting": "[12]; in chloroform or ether", "result": "practically insoluble"},
      {"measurement": "solubility", "setting": "[12]; in water, ethanol, methanol and glycerol", "result": "very soluble"},
      {"measurement": "stability", "setting": "[13]; aqueous urea solutions, develop an odor of ammonia", "result": "gradually degrade"},
      {"measurement": "stability", "setting": "[13]; stored under dry conditions at room temperature", "result": "stable"}
    ]}
  ]
}
